Experimental data reported in patent US11452758B2, “Antimicrobial peptide derived from LL37 peptide and uses thereof” (INDUSTRY-ACADEMIC COOPERATION FOUNDATION, CHOSUN UNIVERSITY, priority 2018, dated 2022).
≈ marks a conversion by molar mass, not a printed value. Where a SMILES comes first, the peptide text is derived from it.

Key:
[1] = Cytotoxicity in normal cell line (MTT); assay type: cell-based, human; conditions: human
Experimental: To determine the cytotoxicity of the peptides produced by the method of Example 1 in normal cell line, cytotoxicity was measured by using normal human keratinocyte cell line (HaCaT) and normal human fibroblast cell line (Hs27).
Specifically, normal human keratinocyte (HaCaT) cells and normal human fibroblast (Hs27) cells, which have been cultured in DMEM medium containing 10% FBS (fetal bovine serum), were aliquoted in a microtiter plate to have 1×10^4 cells per well. After culturing them for 24 hours, the cells were subjected to a treatment with LL37, LL37-1, LL37-2, LL37-3 or LL37-4 peptide, each at concentration of 0.5, 1, 2, 4, 8, 16 or 32 μM/well, followed by reaction for 24 hours in a 5% CO2 incubator. After culture, a reaction solution containing 5 mg/ml MTT (Thiazolyl Blue Tetrazolium Bromide) dissolved in phosphate buffered saline (PBS) was added in an amount of 10 μl to each well and the reaction was allowed to occur for 1 hour. After that, the supernatant was discarded, and, by dissolving MTT crystals that are formed by adding 200 μl DMSO (dimethyl sulfoxide), the absorbance at 570 nm was measured to determine the cell survival ability.

S. aureus ATCC 25923 = assay type: cell-based, Staphylococcus aureus; conditions: ATCC 25923, 18 h
Excerpt: (§1) To compare the antimicrobial activity among the peptides produced by the method of Example 1, the inventors of the present invention measured the minimal growth inhibitory concentration (MIC), which is minimum concentration of the peptide not allowing any […] of bacterial cells.
(§2) Specifically, the bacterial strains described in the following Table 2 were purchased and cultured to a mid-log phase in MHB (Mueller Hinton Broth) medium. Then, after dilution to bacterial cell concentration of 2×10^5 cells/50 μl, the cells were inoculated to a microtiter plate (NUNC, USA). Thereafter, LL37-1, LL37-2, LL37-3 or LL37-4 peptide which has been synthesized in Example 1 above was subjected to serial dilution, ½ times for each, in a 96-well plate. After adding the peptides in an amount of 50 μl to the cell plate, the cells were cultured for 18 hours at 37° C. By using a microtiter plate reader (Merck Elisa reader, Germany), the absorbance was measured at a wavelength of 600 nm to determine the MIC value of each bacterial strain. As a control group, LL37 as a mother peptide was used and subjected to the same process as above to determine the MIC value of each strain.

P. aeruginosa ATCC 27853 = assay type: cell-based, Pseudomonas aeruginosa; conditions: ATCC 27853, 18 h
Excerpt: as §1, §2

S. typhimurium KCTC 1925 = assay type: cell-based, Salmonella typhimurium; conditions: KCTC 1925, 18 h
Excerpt: as §1, §2

[2] = test system: L. monocytogenes KCTC 3710; assay type: cell-based, Listeria monocytogenes; conditions: KCTC 3710, 18 h
Excerpt: as §1, §2

A. baumannii #19 = assay type: cell-based, Acinetobacter baumannii; conditions: #19
Excerpt: as §1, §2

A. baumannii #11 = assay type: cell-based, Acinetobacter baumannii; conditions: #11
Excerpt: as §1, §2

A. baumannii #10 = assay type: cell-based, Acinetobacter baumannii; conditions: #10
Excerpt: as §1, §2

A. baumannii #4 = assay type: cell-based, Acinetobacter baumannii; conditions: #4
Excerpt: as §1, §2

A. baumannii #5 = assay type: cell-based, Acinetobacter baumannii; conditions: #5
Excerpt: as §1, §2

A. baumannii KCTC 2508 = assay type: cell-based, Acinetobacter baumannii; conditions: KCTC 2508, 18 h
Excerpt: as §1, §2

A. baumannii #3 = assay type: cell-based, Acinetobacter baumannii; conditions: #3
Excerpt: as §1, §2

A. baumannii #13 = assay type: cell-based, Acinetobacter baumannii; conditions: #13
Excerpt: as §1, §2

A. baumannii #12 = assay type: cell-based, Acinetobacter baumannii; conditions: #12
Excerpt: as §1, §2

A. baumannii #8 = assay type: cell-based, Acinetobacter baumannii; conditions: #8
Excerpt: as §1, §2

A. baumannii #2 = assay type: cell-based, Acinetobacter baumannii; conditions: #2
Excerpt: as §1, §2

A. baumannii #9 = assay type: cell-based, Acinetobacter baumannii; conditions: #9
Excerpt: as §1, §2

E. coli ATCC 25922 = assay type: cell-based, Escherichia coli; conditions: ATCC 25922, 18 h
Excerpt: as §1, §2

**Q.** For `CC[C@H](C)[C@H](NC(=O)[C@H](CCCNC(=N)N)NC(=O)[C@H](CCC(N)=O)NC(=O)[C@@H](NC(=O)[C@@H](NC(=O)[C@H](CCCNC(=N)N)NC(=O)[C@H](CCCCN)NC(=O)[C@H](Cc1ccccc1)NC(=O)[C@H](CCC(=O)O)NC(=O)[C@@H](N)CCCCN)[C@@H](C)CC)C(C)C)C(=O)N[C@@H](CCCCN)C(=O)N[C@@H](CC(=O)O)C(=O)N[C@@H](Cc1ccccc1)C(=O)N[C@@H](CC(C)C)C(=O)N[C@@H](CCCNC(=N)N)C(=O)N[C@@H](CC(N)=O)C(N)=O` [LL37-1, KEFKRIVQRIKDFLRN-NH2] (H-KEFKRIVQRIKDFLRN-NH2), which viability at 24 h, 0.5 µM ([1]; HaCaT keratinocyte cells) is on record?
**A.** The viability at 24 h, 0.5 µM was 97%.

**Q.** What about the viability at 24 h, 1 µM ([1]; HaCaT keratinocyte cells) of the same compound?
**A.** Its viability at 24 h, 1 µM is 103%.

**Q.** What about the viability at 24 h, 2 µM ([1]; HaCaT keratinocyte cells) of the same compound?
**A.** The viability at 24 h, 2 µM was 98%.

**Q.** What about the viability at 24 h, 4 µM ([1]; HaCaT keratinocyte cells) of the same compound?
**A.** Its viability at 24 h, 4 µM is 99%.

**Q.** What about the viability at 24 h, 8 µM ([1]; HaCaT keratinocyte cells) of the same compound?
**A.** Its viability at 24 h, 8 µM is 103%.

**Q.** And the viability at 24 h, 16 µM ([1]; HaCaT keratinocyte cells)?
**A.** Its viability at 24 h, 16 µM is 101%.

**Q.** What about the viability at 24 h, 32 µM ([1]; HaCaT keratinocyte cells) of the same compound?
**A.** The viability at 24 h, 32 µM was 104%.

**Q.** What about the viability at 24 h, 0.5 µM ([1]; Hs27 fibroblast cells) of the same compound?
**A.** The viability at 24 h, 0.5 µM was 100%.

**Q.** What about the viability at 24 h, 1 µM ([1]; Hs27 fibroblast cells) of the same compound?
**A.** Its viability at 24 h, 1 µM is 100%.

**Q.** And the viability at 24 h, 2 µM ([1]; Hs27 fibroblast cells)?
**A.** The viability at 24 h, 2 µM was 103%.

**Q.** And the viability at 24 h, 4 µM ([1]; Hs27 fibroblast cells)?
**A.** Its viability at 24 h, 4 µM is 95%.

**Q.** What about the viability at 24 h, 8 µM ([1]; Hs27 fibroblast cells) of the same compound?
**A.** The viability at 24 h, 8 µM was 96%.

**Q.** What about the viability at 24 h, 16 µM ([1]; Hs27 fibroblast cells) of the same compound?
**A.** Its viability at 24 h, 16 µM is 92%.

**Q.** And the viability at 24 h, 32 µM ([1]; Hs27 fibroblast cells)?
**A.** The viability at 24 h, 32 µM was 95%.

**Q.** What about the Minimal inhibitory concentration (S. aureus ATCC 25923) of the same compound?
**A.** Its Minimal inhibitory concentration is 32 µM (≈ 66.9 µg/mL).

**Q.** And the Minimal inhibitory concentration (P. aeruginosa ATCC 27853)?
**A.** The Minimal inhibitory concentration was 16 µM (≈ 33.4 µg/mL).

**Q.** What about the Minimal inhibitory concentration (S. typhimurium KCTC 1925) of the same compound?
**A.** The Minimal inhibitory concentration was 32 µM (≈ 66.9 µg/mL).

**Q.** And the Minimal inhibitory concentration [2]?
**A.** The Minimal inhibitory concentration was 128 µM (≈ 267 µg/mL).

**Q.** And the Minimal inhibitory concentration (A. baumannii #19)?
**A.** Its Minimal inhibitory concentration is 8 µM (≈ 16.7 µg/mL).

**Q.** And the Minimal inhibitory concentration (A. baumannii #11)?
**A.** The Minimal inhibitory concentration was 4 µM (≈ 8.36 µg/mL).

**Q.** What about the Minimal inhibitory concentration (A. baumannii #10) of the same compound?
**A.** The Minimal inhibitory concentration was 4 µM (≈ 8.36 µg/mL).

**Q.** And the Minimal inhibitory concentration (A. baumannii #4)?
**A.** The Minimal inhibitory concentration was 8 µM (≈ 16.7 µg/mL).

**Q.** What about the Minimal inhibitory concentration (A. baumannii #5) of the same compound?
**A.** Its Minimal inhibitory concentration is 4 µM (≈ 8.36 µg/mL).

**Q.** And the Minimal inhibitory concentration (A. baumannii KCTC 2508)?
**A.** Its Minimal inhibitory concentration is 16 µM (≈ 33.4 µg/mL).

**Q.** And the Minimal inhibitory concentration (A. baumannii #3)?
**A.** Its Minimal inhibitory concentration is 8 µM (≈ 16.7 µg/mL).

**Q.** What about the Minimal inhibitory concentration (A. baumannii #13) of the same compound?
**A.** Its Minimal inhibitory concentration is 4 µM (≈ 8.36 µg/mL).

**Q.** And the Minimal inhibitory concentration (A. baumannii #12)?
**A.** Its Minimal inhibitory concentration is 8 µM (≈ 16.7 µg/mL).

**Q.** What about the Minimal inhibitory concentration (A. baumannii #8) of the same compound?
**A.** Its Minimal inhibitory concentration is 4 µM (≈ 8.36 µg/mL).

**Q.** What about the Minimal inhibitory concentration (A. baumannii #2) of the same compound?
**A.** Its Minimal inhibitory concentration is 4 µM (≈ 8.36 µg/mL).

**Q.** And the Minimal inhibitory concentration (A. baumannii #9)?
**A.** The Minimal inhibitory concentration was 4 µM (≈ 8.36 µg/mL).

**Q.** What about the Minimal inhibitory concentration (E. coli ATCC 25922) of the same compound?
**A.** The Minimal inhibitory concentration was 128 µM (≈ 267 µg/mL).
